The results in this text go back to article PMC10508264, “Exploring the antioxidant, antimicrobial, cytotoxic and biothermodynamic properties of novel morpholine derivative bioactive Mn(II), Co(II) and Ni(II) complexes – combined experimental and theoretical measurements towards DNA/BSA/SARS-CoV-2 3CL^Pro” (RSC Medicinal Chemistry, 2023).

This assay deals with BSA (Bos taurus, UniProt P02769). Kind of assay: FRET computation, donor (BSA)–acceptor (compound). The assay is classed as binding, bovine. More on the design: kET (rate of energy transfer): unit not given here. The settings on record: for B (average brightness of complex–BSA system): free BSA 6573.60. The text has this:
The critical distance between donor and acceptor molecules can be estimated using the FRET approach to assess the binding affinity between BSA and a test substance.[13,33–35]
FRET is a non-destructive spectroscopic method consisting of a process between several electronic excited states of molecules that is dependent on distance (r). FRET can also be employed to distinguish the relative angular orientation and closeness of fluorophores.[82] The process happens when there is a large overlap between the absorption spectrum acceptor (compound/chromophore) and the donor's emission spectrum (BSA/fluorophore) (Fig. S30 ^†). Also, the average distance (r) between the donor and acceptor can be measured in accordance with this theory. Fluorescence is quenched due to energy being transmitted from the excited state of BSA to the substances (HL)/(1–3). As a result of the FRET analysis, the observed r findings were in the range of 2.4127–2.7129 nm (Table 5 and Fig. S30 ^†). […] The following conditions have a major impact on the effectiveness of FRET: (i) the distance (r) should be in the prescribed range of 2–8 nm for energy transfer; (ii) there is a large overlap between the emission spectrum of biomolecules (donors) and the electronic absorption spectrum of acceptors (substances); and (iii) the BSA and compound transition dipoles are oriented correctly. BSA transmits excitation energy to a compound during FRET without emitting a photon from the previous molecule system. Energy transfer (E) results were acquired from eqn (18) (Table 5). K^2 is associated with the geometry of the BSA and complex of the dipoles, the value for random orientation (K2 = 2/3) as in a fluid solution. Basically, the K^2 values were found in the range from 0 to 4, and energy can be transferred from BSA to the compound when electrons are transferred between the two molecules. For parallel transition dipoles that are aligned, K^2 is equal to 4, which denotes maximal energy transfer; and when the orientation of the dipoles is perpendicular to one another, K^2 is equal to 0, which denotes very weak energy transfer. When the relative orientation of the dipoles is random, K^2 is equal to 2/3. Eqn (20) is helpful for measuring the J values for overlap of the emission spectrum of BSA with the electronic absorption spectrum of the compound. The molar absorption coefficient (εA) and fluorescence emission intensity were both measured on the unit area scale of wavenumbers. It is imperative that J, after being normalized, is independent of the real size of εA. The following variables for the complex–BSA interaction are determined using eqn (18)–(23), n = 1.36, Φ = 0.15, E = 0.3462–0.5692, J = 0.8215–1.0886 × 10^−14 cm^3 L mol^−1, R0 = 2.4400–2.5573 nm, r = 2.4127–2.7129 nm, kET = 5.2941–13.2142 J s^−1 and B = 5339.79–6007.23 mol^−1 cm^−1 (Table 5). The observed values of R0 and r between BSA Trp213 and the interacting compound were substantially smaller than 8 nm and their relationships are found in the following sequence: 0.5R0 (1.2200–1.2786) < r (2.4127–2.7128) < 1.5R0 (3.6601–3.8358). […] Also, τ is denoted as the lifetime of fluorescence emission of the biomolecule and is described as the inverse of the entire degradation rate τ = 1/(kr + knr). The radiative lifetime of the fluorophore is represented as τ0 = 1/kr. The values of τ and Φ are associated with eqn (21) (Table 5). Quenching occurs when the ground or excited states of BSA come into contact with a compound in the solution. The intensity of fluorescence emission is also decreasing. Quenching is divided into the two main categories of dynamic and static quenching. While BSA is in an excited state, it binds with the substance during a dynamic or collisional quenching mechanism, and is then deactivated to the ground state without the emission of radiation. Therefore, the concentration of the quenching compounds affects dynamic quenching. The τ and Φ values for BSA diminish with an increase in the compound concentration. […]

Take `[Mn+2].[O-]c1ccccc1N=Cc1ccc(N2CCOCC2)cc1.[O-]c1ccccc1N=Cc1ccc(N2CCOCC2)cc1.c1ccc(-c2ccccn2)nc1` [(1)]: the “E (efficiency of energy transfer)” value worked out at 0.4462, the “J (spectral overlap integral)” value is recorded as 1.0886 × 10^−14 (LM^−1 cm^3), the “R0 (Förster radius)” value was 2.5573 nm and the “kET (rate of energy transfer)” value stood at 8.0556. Further, the “r (donor–acceptor distance)” value is listed as 2.6511 nm and the “B (average brightness of complex–BSA system)” value was 6007.23 M⁻¹ cm⁻¹.
`[Co+2].[O-]c1ccccc1N=Cc1ccc(N2CCOCC2)cc1.[O-]c1ccccc1N=Cc1ccc(N2CCOCC2)cc1.c1ccc(-c2ccccn2)nc1` [(2)]: the “E (efficiency of energy transfer)” value was found to be 0.5000, the “J (spectral overlap integral)” value is listed as 1.0201 × 10^−14 (LM^−1 cm^3), the “R0 (Förster radius)” value amounted to 2.5297 nm and the “kET (rate of energy transfer)” value is 10.000. The “r (donor–acceptor distance)” value worked out at 2.5297 nm and the “B (average brightness of complex–BSA system)” value stood at 5835.99 M⁻¹ cm⁻¹.
As for `[Ni+2].[O-]c1ccccc1N=Cc1ccc(N2CCOCC2)cc1.[O-]c1ccccc1N=Cc1ccc(N2CCOCC2)cc1.c1ccc(-c2ccccn2)nc1` [(3)], the “E (efficiency of energy transfer)” value came to 0.5692, the “J (spectral overlap integral)” value was 1.0145 × 10^−14 (LM^−1 cm^3), the “R0 (Förster radius)” value was determined as 2.5274 nm and the “kET (rate of energy transfer)” value came out at 13.2142. In addition, the “r (donor–acceptor distance)” value is 2.4127 nm and the “B (average brightness of complex–BSA system)” value was found to be 5822.04 M⁻¹ cm⁻¹.
On to `Oc1ccccc1N=Cc1ccc(N2CCOCC2)cc1` [(HL), 2-(4-morpholinobenzylideneamino)phenol], for which the “E (efficiency of energy transfer)” value was determined as 0.3462, the “J (spectral overlap integral)” value is reported as 0.8215 × 10^−14 (LM^−1 cm^3), the “R0 (Förster radius)” value is reported as 2.4400 nm and the “kET (rate of energy transfer)” value was 5.2941. Further, the “r (donor–acceptor distance)” value was determined as 2.7129 nm and the “B (average brightness of complex–BSA system)” value was determined as 5339.79 M⁻¹ cm⁻¹.
